{
  "source": "patent US20180185308A1",
  "about": "“COMPOSITIONS AND METHODS FOR TREATING INFLAMMATORY DISEASE OR CONDITIONS” (Matinas BioPharma Nanotechnologies, Inc., priority 2015, published 2018)",
  "key": {"gastric mucosa": {"test_system": "gastric mucosa", "assay": "Evaluation of gastric mucosa for lesions/erosions in rats after oral dosing", "type": "in vivo, Male Sprague Dawley rats"}, "[1]": {"test_system": "carrageenan-induced paw inflammation", "assay": "Rat carrageenan-induced paw inflammation (paw edema) assay", "type": "in vivo, Male Sprague Dawley rats", "conditions": "oral, one hour prior to carrageenan, paw weight difference four hours after carrageenan"}, "[2]": {"assay": "Solubility of ibuprofen in oils", "type": "physicochemical"}, "[3]": {"conditions": "rats, ibuprofen at 50 mg/kg oral"}},
  "data": [
    {"smiles": "CC(C)Cc1ccc(C(C)C(=O)O)cc1", "note": "(stereo not drawn) [Commercial ibuprofen, ibuprofen]", "values": [
      {"measurement": "rats with gastric lesions (incidence)", "setting": "gastric mucosa; 10 mg/kg, oral", "result": "1 of 10"},
      {"measurement": "rats with gastric lesions (incidence)", "setting": "gastric mucosa; 10 mg/kg, oral, listed as commercial preparation of ibuprofen", "result": "Some rats"},
      {"measurement": "number of gastric lesions and total stomach lesion length (in words)", "setting": "gastric mucosa; 50 mg/kg, oral", "result": "significantly increased numbers of gastric lesions and increased total stomach lesion length"},
      {"measurement": "Average Size of Lesion", "setting": "gastric mucosa; [3]", "result": "7.2 ± 1.9"},
      {"measurement": "Number of Lesions per Animal", "setting": "gastric mucosa; [3]", "result": "4.1 ± 0.8"},
      {"measurement": "Number of Animals with Lesions", "setting": "gastric mucosa; rats, ibuprofen at 50 mg/kg oral, five hours after dosing, groups of 10", "result": 9},
      {"measurement": "rats with gastric lesions (incidence)", "setting": "gastric mucosa; single-dose 50 mg/kg (highest dose), oral", "result": "9 of 10"},
      {"measurement": "ED50", "setting": "[1]", "result": 30, "unit": "mg/kg"},
      {"measurement": "solubility in castor oil compared with other oils", "setting": "[2]", "result": "substantially more soluble in castor oil than other oils"}
    ]}
  ]
}
